Source: patent publication US10065972B2, “Bicyclic or tricyclic heterocyclic compound” (MITSUBISHI TANABE PHARMA CORPORATION, priority 2014, dated 2018)
Structures can show the parent of a compound that is named as a salt.

Biological target: human recombinant KAT-II (Homo sapiens (Human), UniProt Q8N5Z0)
Assay: KAT-II inhibitory test
Assay type: biochemical
Settings: 3.0 μmol/L kynurenine, 37° C., 1 hr, pH 8.0; kynurenic acid quantified by HPLC
Procedure, shortened: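 E. coli-expressed His/MBP-tagged human KAT-II (2.0 ng/μL) incubated with 3.0 μmol/L kynurenine and 10 μmol/L pyridoxal phosphate in Tris-acetate pH 8.0, 1 hr at 37 °C. Reaction stopped with TCA. Kynurenic acid quantified by reversed-phase HPLC with fluorescence detection (ex 354/em 460 nm), duplicate at each concentration.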

Chain of human recombinant KAT-II (Q8N5Z0 30-425): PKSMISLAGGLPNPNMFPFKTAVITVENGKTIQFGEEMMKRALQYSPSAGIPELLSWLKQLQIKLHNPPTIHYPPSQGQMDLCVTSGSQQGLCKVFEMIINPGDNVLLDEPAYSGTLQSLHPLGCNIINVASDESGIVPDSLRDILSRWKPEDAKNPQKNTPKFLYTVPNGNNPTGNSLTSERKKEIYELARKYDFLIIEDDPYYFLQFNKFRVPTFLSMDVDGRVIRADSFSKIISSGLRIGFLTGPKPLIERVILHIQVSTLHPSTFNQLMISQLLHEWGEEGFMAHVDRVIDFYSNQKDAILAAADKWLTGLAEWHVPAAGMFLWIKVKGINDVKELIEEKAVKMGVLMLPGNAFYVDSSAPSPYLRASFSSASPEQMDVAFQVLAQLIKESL

| IC50 [nM] | SMILES |
| --- | --- |
| 27 | Cn1c(C(F)F)nc2sc(N3CCC[C@@H]3C(=O)NCc3ccccc3)nc2c1=O [Example 281, (R)-N-benzyl-1-(5-difluoromethyl-6-methyl-7-oxo-6,7-dihydro-[1,3]thiazolo[5,4-d]pyrimidin-2-yl)pyrrolidine-2-carboxamide] |
| 170 | CN(C)CCCn1c(C(F)(F)F)nc2sc(N3CCC[C@@H]3C(=O)NCc3ccccc3)nc2c1=O [Example 294, (R)-N-benzyl-1-{6-[3-(N′,N′-dimethylamino)propyl]-7-oxo-5-trifluoromethyl-6,7-dihydro-[1,3]thiazolo[5,4-d]pyrimidin-2-yl}pyrrolidine-2-carboxamide] |
| 26 | Cn1c(-c2ncccc2F)nc2sc(N3CCC[C@@H]3C(=O)NCc3ccccc3)nc2c1=O [Example 298, (R)-N-benzyl-1-[5-(3-fluoropyridin-2-yl)-6-methyl-7-oxo-6,7-dihydro-[1,3]thiazolo[5,4-d]pyrimidin-2-yl]pyrrolidine-2-carboxamide] |
| 460 | CCn1c(C(F)F)nc2sc(N3CCC[C@@H]3C(=O)N[C@@H](c3ccccc3)C3CC3)nc2c1=O [Example 299, (R)-N-[(R)-cyclopropyl(phenyl)methyl]-1-(5-difluoromethyl-6-ethyl-7-oxo-6,7-dihydro-[1,3]thiazolo[5,4-d]pyrimidin-2-yl)pyrrolidine-2-carboxamide] |
| 180 | CCn1c(C(F)F)nc2sc(N3CCC[C@@H]3C(=O)N[C@H](COC)c3ccccc3)nc2c1=O [Example 300, (R)-1-(5-difluoromethyl-6-ethyl-7-oxo-6,7-dihydro-[1,3]thiazolo[5,4-d]pyrimidin-2-yl)-N-((S)-2-methoxy-1-phenylethyl)pyrrolidine-2-carboxamide] |
| 2600 | CCn1c(C(F)F)nc2sc(N3CCC[C@@H]3C(=O)N[C@@H](c3ccccc3)C(F)(F)F)nc2c1=O [Example 301, (R)-1-(5-difluoromethyl-6-ethyl-7-oxo-6,7-dihydro-[1,3]thiazolo[5,4-d]pyrimidin-2-yl)pyrrolidine-N-((S)-2,2,2-trifluoro-1-phenylethyl)-2-carboxamide] |
| 21 | CCn1c(C(F)F)nc2sc(N3CCC[C@@H]3C(=O)NCc3ccc4c(c3)OCO4)nc2c1=O [Example 304, (R)-N-[(benzo[1,3]dioxo-5-yl)methyl]-1-(5-difluoromethyl-6-ethyl-7-oxo-6,7-dihydro-[1,3]thiazolo[5,4-d]pyrimidin-2-yl)pyrrolidine-2-carboxamide] |
| 120 | CCn1c(C(F)F)nc2sc(N3CCC[C@@H]3C(=O)NCc3ccco3)nc2c1=O [Example 307, (R)-1-(5-difluoromethyl-6-ethyl-7-oxo-6,7-dihydro-[1,3]thiazolo[5,4-d]pyrimidin-2-yl)-N-[(furan-2-yl)methyl]pyrrolidine-2-carboxamide] |
| 61 | CCn1c(C(F)F)nc2sc(N3CCC[C@@H]3C(=O)NCc3cccs3)nc2c1=O [Example 309, (R)-1-(5-difluoromethyl-6-ethyl-7-oxo-6,7-dihydro-[1,3]thiazolo[5,4-d]pyrimidin-2-yl)-N-[(thiophen-2-yl)methyl]pyrrolidine-2-carboxamide] |
| 340 | CCn1c(C(F)F)nc2sc(N3CCC[C@@H]3C(=O)NCc3cc(C)on3)nc2c1=O [Example 311, (R)-1-(5-difluoromethyl-6-ethyl-7-oxo-6,7-dihydro-[1,3]thiazolo[5,4-d]pyrimidin-2-yl)-N-[(5-methyl-isoxazol-3-yl)methyl]pyrrolidine-2-carboxamide] |
| 1100 | CCn1c(C(F)F)nc2sc(N3CCC[C@@H]3C(=O)NCc3cc(C)nn3C)nc2c1=O [Example 313, (R)-1-(5-difluoromethyl-6-ethyl-7-oxo-6,7-dihydro-[1,3]thiazolo[5,4-d]pyrimidin-2-yl)-N-[(2,5-dimethyl-2H-pyrazol-3-yl)methyl]pyrrolidine-2-carboxamide] |
| 610 | CCn1c(C(F)F)nc2sc(N3CCC[C@@H]3C(=O)NCc3nccs3)nc2c1=O [Example 314, (R)-1-(5-difluoromethyl-6-ethyl-7-oxo-6,7-dihydro-[1,3]thiazolo[5,4-d]pyrimidin-2-yl)-N-[(1,3-thiazol-2-yl)methyl]pyrrolidine-2-carboxamide] |
| 70 | COC1CN(Cc2nc3sc(N4CCC[C@@H]4C(=O)NCc4ccccc4)nc3c(=O)n2C)C1 [Example 321, (R)-N-benzyl-1-{5-[(3-methoxyazetidin-1-yl)methyl]-6-methyl-7-oxo-6,7-dihydro[1,3]thiazolo[5,4-d]pyrimidin-2-yl}pyrrolidine-2-carboxamide] |
| 20 | Cn1c(CN2CCOCC2)nc2sc(N3CCC[C@@H]3C(=O)NCc3ccccc3)nc2c1=O [Example 322, (R)-N-benzyl-1-{6-methyl-5-[(morpholin-4-yl)methyl]-7-oxo-6,7-dihydro[1,3]thiazolo[5,4-d]pyrimidin-2-yl}pyrrolidine-2-carboxamide] |
| 78 | CN(C)Cc1nc2sc(N3CCC[C@@H]3C(=O)NCc3ccccc3)nc2c(=O)n1C [Example 323, (R)-N-benzyl-1-{5-[(N′,N′-dimethylamino)methyl]-6-methyl-7-oxo-6,7-dihydro[1,3]thiazolo[5,4-d]pyrimidin-2-yl}pyrrolidine-2-carboxamide] |
| 17 | Cn1c(CN2Cc3ccccc3C2)nc2sc(N3CCC[C@@H]3C(=O)NCc3ccccc3)nc2c1=O [Example 328, (R)-N-benzyl-1-{5-[(1,3-dihydro-2H-isoindol-2-yl)methyl]-6-methyl-7-oxo-6,7-dihydro[1,3]thiazolo[5,4-d]pyrimidin-2-yl}pyrrolidine-2-carboxamide] |
| 49 | CN(Cc1nc2sc(N3CCC[C@@H]3C(=O)NCc3ccccc3)nc2c(=O)n1C)CC(F)(F)F [Example 333, (R)-N-benzyl-1-[6-methyl-5-{[N′-methyl-N′-(2,2,2-trifluoroethyl)amino]methyl}-7-oxo-6,7-dihydro[1,3]thiazolo[5,4-d]pyrimidin-2-yl]pyrrolidine-2-carboxamide] |
| 5.6 | CN(C)c1nc2sc(N3CCC[C@@H]3C(=O)NCc3ccccc3)nc2c(=O)n1C [Example 335, (R)-N-benzyl-1-[5-(N′,N′-dimethylamino)-6-methyl-7-oxo-6,7-dihydro[1,3]thiazolo[5,4-d]pyrimidin-2-yl]pyrrolidine-2-carboxamide] |
| 4.4 | Cn1c(N2CCCCC2)nc2sc(N3CCC[C@@H]3C(=O)NCc3ccccc3)nc2c1=O [Example 337, (R)-N-benzyl-1-[6-methyl-7-oxo-5-(piperidin-1-yl)-6,7-dihydro[1,3]thiazolo[5,4-d]pyrimidin-2-yl]pyrrolidine-2-carboxamide] |
| 7.9 | Cn1c(N2CCOCC2)nc2sc(N3CCC[C@@H]3C(=O)NCc3ccccc3)nc2c1=O [Example 339, (R)-N-benzyl-1-[6-methyl-5-(morpholin-4-yl)-7-oxo-6,7-dihydro[1,3]thiazolo[5,4-d]pyrimidin-2-yl]pyrrolidine-2-carboxamide] |
| 11 | CC(C)Nc1nc2sc(N3CCC[C@@H]3C(=O)NCc3ccccc3)nc2c(=O)n1C [Example 341, (R)-N-benzyl-1-{6-methyl-7-oxo-5-[(propan-2-yl)amino]-6,7-dihydro[1,3]thiazolo[5,4-d]pyrimidin-2-yl}pyrrolidine-2-carboxamide] |
| 8.7 | Cn1c(-c2ccccc2F)nc2sc(N3CCC[C@@H]3C(=O)NCc3ccccc3)nc2c1=O [Example 345, (R)-N-benzyl-1-[5-(2-fluorophenyl)-6-methyl-7-oxo-6,7-dihydro[1,3]thiazolo[5,4-d]pyrimidin-2-yl]pyrrolidine-2-carboxamide] |
| 120 | CNCCn1c(C(F)(F)F)nc2sc(N3CCC[C@@H]3C(=O)NCc3ccccc3)nc2c1=O [Example 363, (R)-N-benzyl-1-[6-(2-methylaminoethyl)-7-oxo-5-trifluoromethyl-6,7-dihydro[1,3]thiazolo[5,4-d]pyrimidin-2-yl]pyrrolidine-2-carboxamide] |
| 150 | CN1CCC(Cn2c(C(F)(F)F)nc3sc(N4CCC[C@@H]4C(=O)NCc4ccccc4)nc3c2=O)CC1 [Example 366, (R)-N-benzyl-1-{6-[(1-methylpiperidin-4-yl)methyl]-7-oxo-5-trifluoromethyl-6,7-dihydro[1,3]thiazolo[5,4-d]pyrimidin-2-yl}pyrrolidine-2-carboxamide] |
| 39 | CN(C)CCn1c(C(F)(F)F)nc2sc(N3CCC[C@@H]3C(=O)NCc3ccccc3)nc2c1=O [Example 372, (R)-N-benzyl-1-{6-[2-(N′,N′-dimethylamino)ethyl]-7-oxo-5-trifluoromethyl-6,7-dihydro[1,3]thiazolo[5,4-d]pyrimidin-2-yl}pyrrolidine-2-carboxamide] |
| 8 | CN(CCn1c(C(F)(F)F)nc2sc(N3CCC[C@@H]3C(=O)NCc3ccccc3)nc2c1=O)CC(F)(F)F [Example 373, (R)-N-benzyl-1-[6-{2-[N′-methyl-N′-(2,2,2-trifluoroethyl)amino]ethyl}-7-oxo-5-trifluoromethyl-6,7-dihydro[1,3]thiazolo[5,4-d]pyrimidin-2-yl]pyrrolidine-2-carboxamide hydrochloride] |
| 14 | C[C@H](c1nc2sc(N3CCC[C@@H]3C(=O)NCc3ccccc3)nc2c(=O)n1C)N(C)C [Example 376, (R)-N-benzyl-1-{5-[(R)-1-(N′,N′-dimethylamino)ethyl]-6-methyl-7-oxo-6,7-dihydro[1,3]thiazolo[5,4-d]pyrimidin-2-yl}pyrrolidine-2-carboxamide] |
| 76 | O=C(NCc1ccccc1)[C@H]1CCCN1c1nc2c(=O)n(CCO)c(C(F)(F)F)nc2s1 [Example 396, (R)-N-benzyl-1-[6-(2-hydroxyethyl)-7-oxo-5-trifluoromethyl-6,7-dihydro[1,3]thiazolo[5,4-d]pyrimidin-2-yl]pyrrolidine-2-carboxamide] |
| 370 | CN(C)CCOc1nc2sc(N3CCC[C@@H]3C(=O)NCc3ccccc3)nc2c(=O)n1C [Example 406, (R)-N-benzyl-1-{5-[2-(N′,N′-dimethylamino)ethoxy]-6-methyl-7-oxo-6,7-dihydro[1,3]thiazolo[5,4-d]pyrimidin-2-yl}pyrrolidine-2-carboxamide] |
